Data published in patent US8076352B2, “Administration of carboline derivatives useful in the treatment of cancer and other diseases” (PTC Therapeutics, Inc., priority 2004, dated 2011).
pEC50: −log10 of the molar value.

test system: hypoxia-inducible endogenous VEGF expression in HeLa cells; test: Hypoxia-inducible endogenous VEGF expression, VEGF ELISA of conditioned media (dose-response EC50); format: cell-based; settings: HeLa cells under hypoxic conditions
Method: The ability of the compounds of the invention to modulate hypoxia-inducible endogenous VEGF expression may be analyzed as follows. VEGF protein levels may be monitored by an ELISA assay (R&D Systems). Briefly, HeLa cells may be cultured for 24-48 hours under hypoxic conditions (1% O2, 5% CO2, balanced with nitrogen) in the presence or absence of a compound of the invention. The conditioned media may then be assayed by ELISA, and the concentration of VEGF calculated from the standard ELISA curve of each assay.
A dose-response analysis may be performed using the ELISA assay and conditions described above. The conditions for the dose-response ELISA are analogous to those described above. A series of, e.g., seven different concentrations may be analyzed. […] Dose-response curves may be plotted using percentage inhibition versus concentration of the compound, and EC50 and CC50 values may be generated for each compound with the maximal inhibition set as 100% and the minimal inhibition as 0%.

pEC50	Compound
7.40 to 8.10	CS(=O)(=O)c1ccc(C2c3[nH]c4ccc(Cl)cc4c3CCN2C(=O)N2CCOCC2)cc1 (stereo not drawn) [Compound 361]
> 8.10	COCCOc1ccc(C2c3[nH]c4ccc(Cl)cc4c3CCN2C(=O)Oc2ccc(F)cc2)cc1 (stereo not drawn) [Compound 388]

same assay, conditions: HeLa cells, hypoxic conditions (1% O2)

pEC50	Compound
> 8.10	O=C(Oc1ccc(Cl)cc1)N1CCc2c([nH]c3ccc(Br)cc23)C1c1ccc(C(F)(F)F)cc1 (stereo not drawn) [Compound 570]

same assay, conditions: Homo sapiens, HeLa cells under hypoxic conditions

pEC50	Compound
> 8.10	CC(C)c1ccc(C2c3[nH]c4ccc(Cl)cc4c3CCN2C(=O)Oc2ccc(Cl)cc2)cc1 (stereo not drawn) [Compound 348]
6.70 to 7.40	COc1ccc(OC(=O)N2CCc3c([nH]c4ccc(Cl)cc34)C2c2ccc(S(C)(=O)=O)cc2)cc1 (stereo not drawn) [Compound 359]
> 8.10	COC(=O)N1CCc2c([nH]c3ccc(Cl)cc23)C1c1ccc(OC)cc1 (stereo not drawn) [Compound 43]
6.00 to 6.70	COc1ccc(C2c3[nH]c4ccc(Cl)cc4c3CCN2C(=O)NC(C)C)cc1 (stereo not drawn) [Compound 177]
6.70 to 7.40	COC(=O)N1CCc2c([nH]c3ccc(Cl)cc23)C1c1ccc2c(c1)OCO2 (stereo not drawn) [Compound 133]
< 6.00	CN(C)c1ccc(C2NCCc3c2[nH]c2ccc(Cl)cc32)cc1 (stereo not drawn) [Compound 297]
7.40 to 8.10	CC(C)c1ccc(C2c3[nH]c4ccc(Cl)cc4c3CCN2c2ncccn2)cc1 (stereo not drawn) [Compound 352]
6.70 to 7.40	COC(=O)N1CCc2c([nH]c3ccc(Cl)cc23)C1c1ccc(F)c(F)c1 (stereo not drawn) [Compound 134]
< 6.00	Clc1ccc2[nH]c3c(c2c1)CCNC3c1ccc(-n2ccnc2)cc1 (stereo not drawn) [Compound 277]
6.00 to 6.70	CCNC(=O)N1CCc2c([nH]c3ccc(Cl)cc23)C1c1ccc(OC)cc1 (stereo not drawn) [Compound 172]
7.40 to 8.10	CCOC(=O)N1CCc2c([nH]c3ccc(Cl)cc23)C1c1ccc(OCc2ccccc2)cc1 (stereo not drawn) [Compound 100]
6.00 to 6.70	CCNC(=S)N1CCc2c([nH]c3ccc(Cl)cc23)C1c1ccc(OCc2ccccc2)cc1 (stereo not drawn) [Compound 206]
7.40 to 8.10	CC(C)OC(=O)N1CCc2c([nH]c3ccc(Cl)cc23)C1c1ccc(Br)cc1 (stereo not drawn) [Compound 47]
< 6.00	COc1ccc(C2NCCc3c2[nH]c2ccc(F)cc32)cc1 (stereo not drawn) [Compound 315]
> 8.10	CCCOC(=O)N1CCc2c([nH]c3ccc(Cl)cc23)C1c1ccc(Br)cc1 (stereo not drawn) [Compound 41]
6.70 to 7.40	Clc1cccc(C2NCCc3c2[nH]c2ccc(Br)cc32)c1 (stereo not drawn) [Compound 137]
> 8.10	O=C(Oc1ccc(Cl)cc1)N1CCc2c([nH]c3ccc(Cl)cc23)C1c1ccc(OCCCn2cncn2)cc1 (stereo not drawn) [Compound 391]
7.40 to 8.10	O=C(OCCCl)N1CCc2c([nH]c3ccc(Cl)cc23)C1c1ccc(Br)cc1 (stereo not drawn) [Compound 58]
> 8.10	CCCOC(=O)N1CCc2c([nH]c3ccc(Cl)cc23)C1c1ccc(OC)cc1 (stereo not drawn) [Compound 28]
< 6.00	COc1ccc(C2c3[nH]c4ccccc4c3CCN2C(=O)Nc2ccccc2)cc1 (stereo not drawn) [Compound 302]
> 8.10	CCOC(=O)N1CCc2c([nH]c3ccc(Cl)cc23)C1c1ccc(OCCN2CCOCC2)cc1 (stereo not drawn) [Compound 279, 6-Chloro-1-[4-(2-morpholin-4-yl-ethoxy)-phenyl]-1,3,4,9-tetrahydro-b-carboline-2-carboxylic acid ethyl ester]
< 6.00	Clc1ccc2[nH]c3c(c2c1)CCNC3c1ccc(OCCN2CCOCC2)cc1 (stereo not drawn) [Compound 363]

same assay, conditions: Homo sapiens, HeLa cells, hypoxic conditions (1% O2)

pEC50	Compound
> 8.10	O=C(Oc1ccc(F)cc1)N1CCc2c([nH]c3ccc(Cl)cc23)C1c1ccc(OCCCCn2cncn2)cc1 (stereo not drawn) [Compound 743]
6.70 to 7.40	COc1ccc(C2c3[nH]c4ccc(Cl)cc4c3CCN2C(=O)Oc2ccccc2Cl)cc1 (stereo not drawn) [Compound 587]
7.40 to 8.10	COCCOCCOc1ccc(C2c3[nH]c4ccc(Cl)cc4c3CCN2C(=O)Oc2ccccc2Cl)cc1 (stereo not drawn) [Compound 674]
7.40 to 8.10	Nc1ncc(C2c3[nH]c4ccc(Cl)cc4c3CCN2C(=O)Oc2ccc(Cl)cc2)cn1 (stereo not drawn) [Compound 457]
6.00 to 6.70	CCOC(=O)N1CCc2c([nH]c3ccc(Cl)cc23)C1c1ccc(C(=O)N2CCC(N3CCCC3)CC2)cc1 (stereo not drawn) [Compound 527]
6.00 to 6.70	CNc1ncc(C2c3[nH]c4ccc(Cl)cc4c3CCN2C(=O)Oc2ccc(OC)cc2)cn1 (stereo not drawn) [Compound 517]
6.70 to 7.40	CCOC(=O)N1CCc2c([nH]c3ccc(Br)cc23)C1c1ccc(CN2CCN(C)CC2)cc1 (stereo not drawn) [Compound 474]
> 8.10	C=CCOc1ccc(C2c3[nH]c4ccc(Cl)cc4c3CCN2C(=O)OCc2ccccc2)cc1 (stereo not drawn) [Compound 412]
7.40 to 8.10	CCOC(=O)Nc1ccc(C2c3[nH]c4ccc(Cl)cc4c3CCN2C(=O)Oc2ccc(Cl)cc2)cc1 (stereo not drawn) [Compound 467]
> 8.10	Cc1ccc(OC(=O)N2CCc3c([nH]c4ccc(Cl)cc34)C2c2ccc(OCC(O)CO)cc2)cc1 (stereo not drawn) [Compound 631]
> 8.10	C=CCOc1ccc(C2c3[nH]c4ccc(Cl)cc4c3CCN2C(=O)OC(C)C)cc1 (stereo not drawn) [Compound 408]
> 8.10	C=CCOc1ccc(C2c3[nH]c4ccc(Cl)cc4c3CCN2C(=O)Oc2ccc(F)cc2)cc1 (stereo not drawn) [Compound 409]
> 8.10	O=C1OCC(COc2ccc(C3c4[nH]c5ccc(Cl)cc5c4CCN3C(=O)Oc3ccc(Cl)cc3)cc2)O1 (stereo not drawn) [Compound 421]
6.00 to 6.70	CCOC(=O)N1CCc2c([nH]c3ccc(Cl)cc23)C1c1cccc(C(=O)N(C)C)c1 (stereo not drawn) [Compound 520]
> 8.10	COC(=O)c1ccc(C2c3[nH]c4ccc(Br)cc4c3CCN2C(=O)Oc2ccc(Cl)cc2)cc1 (stereo not drawn) [Compound 591]

Compound	pEC50
COCCCNCCCCCCOc1ccc(C2c3[nH]c4ccc(Cl)cc4c3CCN2C(=O)Oc2ccc(Cl)cc2)cc1 (stereo not drawn) [Compound 785]	> 8.10
O=C(Oc1ccc(Cl)cc1)N1CCc2c([nH]c3ccc(Cl)cc23)C1c1ccc(OCCCCN2CCOCC2)cc1 (stereo not drawn) [Compound 702]	7.40 to 8.10
O=C(Oc1ccc(Cl)cc1)N1CCc2c([nH]c3ccc(Cl)cc23)C1c1ccc(OCCCCCCN2CCOCC2)cc1 (stereo not drawn) [Compound 786]	> 8.10

same assay, conditions: Homo sapiens, HeLa cells, hypoxic conditions (1% O2, 5% CO2)

Compound	pEC50
COCCN(CCCOc1ccc(C2c3[nH]c4ccc(Cl)cc4c3CCN2C(=O)Oc2ccc(F)cc2)cc1)CCOC (stereo not drawn) [Compound 990]	> 8.10
O=C(Oc1ccc(F)cc1)N1CCc2c([nH]c3ccc(Cl)cc23)C1c1ccc(OCCCN2CCSCC2)cc1 (stereo not drawn) [Compound 991]	6.70 to 7.40
COCCN(C)CCCOc1ccc(C2c3[nH]c4ccc(Cl)cc4c3CCN2C(=O)Oc2ccc(F)cc2)cc1 (stereo not drawn) [Compound 992]	6.70 to 7.40
Cc1cnc(NCCOc2ccc(C3c4[nH]c5ccc(Cl)cc5c4CCN3C(=O)Oc3ccc(Cl)cc3)cc2)s1 (stereo not drawn) [#842]	> 8.10
O=C(Oc1ccc(Cl)cc1)N1CCc2c([nH]c3ccc(Cl)cc23)C1c1ccc(OCCn2cncn2)cc1 (stereo not drawn) [Compound 840]	7.40 to 8.10
CN1CCCC(COc2ccc(C3c4[nH]c5ccc(Cl)cc5c4CCN3C(=O)Oc3ccccc3)cc2)C1 (stereo not drawn) [Compound 952]	7.40 to 8.10
CC(C)NCC(O)COc1ccc(C2c3[nH]c4ccc(Cl)cc4c3CCN2C(=O)Oc2ccc(Cl)cc2)cc1 (stereo not drawn) [Compound 977]	6.70 to 7.40
CN1CCN(CC(O)COc2ccc(C3c4[nH]c5ccc(Cl)cc5c4CCN3C(=O)Oc3ccc(F)cc3)cc2)CC1 (stereo not drawn) [Compound 963]	7.40 to 8.10
O=C(Oc1ccc(Cl)cc1)N1CCc2c([nH]c3ccc(Cl)cc23)C1c1ccc(OCC(O)CN2CCSCC2)cc1 (stereo not drawn) [Compound 923]	> 8.10
CCN(CC)CCCOc1ccc(C2c3[nH]c4ccc(Cl)cc4c3CCN2C(=O)Oc2ccc(Cl)cc2)cc1 (stereo not drawn) [Compound 946]	7.40 to 8.10
O=C(Oc1ccc(F)cc1)N1CCc2c([nH]c3ccc(Cl)cc23)C1c1ccc(OCCn2ccnn2)cc1 (stereo not drawn) [Compound 833]	6.70 to 7.40
